According to US3959519A, “Fortification of food materials with a methionine source” (priority 1975, dated 1976):
Where a SMILES comes first, the peptide text is derived from it.

What was measured:
[1] = Odor development on storage in sealed containers; type: physicochemical; conditions: recrystallized sample, sealed container, twenty-nine days at 45°C.
Experimental: Samples of virtually odorless, recrystallized D,L-methionine, glycyl-D,L-methionine, and D,L-alanyl-D,L-methionine were stored in sealed containers for twenty-nine days at 45°C.

[2] = Chick feeding test, body weight and feed efficiency on fortified corn-soy rations; type: in vivo, cockerels (Barred Rock males x Rhode Island females); conditions: for difference between responses from methionine and glycylmethionine supplemented rations: 0.15% D,L-methionine vs 0.2% glycyl-D,L-methionine; for feed efficiencies / growth: corn-soy poultry ration with 0.15% D,L-methionine or 0.2% glycyl-D,L-methionine
From the text: For this test, cockerels are produced from a cross of Barred Rock males and Rhode Island females. All the 150 cockerels are selected on the basis that their weight differs no more than 2 grams. The birds are maintained on an all vegetable protein corn-soy basal diet for a 2-week preliminary period. At the end of this period, a median group of 90 birds is selected on the basis of weight, and they are then evenly distributed into three experimental groups, which in turn are placed on the experimental rations (Table 2). The level of glycyl-D,L-methionine in Diet No. 3 is equivalent to the level of D,L-methionine in Diet No. 2, on the basis of L-methioninecontent. The birds are weighed weekly and their feed consumption also determined weekly, to permit weekly feed efficiency evaluations. […] | -- -- 92 g.

[3] = test system: Leuconostoc mesenteroides P-60; test: L-methionine bioavailability from dipeptides by turbidimetric growth response of a methionine-requiring bacterial mutant; type: cell-based; conditions: for utilization as a source of L-methionine by L. mesenteroides P-60: 17 hours of incubation at 37°C.; for L-Methionine Response / L-Methionine, % of Theoretical: 17 hours, 37°C.
From the text: The utilization of methionine-containing peptide can be shown, for example, in animal feeding tests. However, the formation of free methionine can also be shown directly in tests with a microorganism requiring methionine for its growth and reproduction. The following Example describes a quantitative test involving a known bacterial mutant.
Leuconostoc mesenteroides P-60 was the bacterial mutant used to assess the biological availability of L-methionine in glycyl-D,L-methionine, glycyl-L-methionine and L-methionylglycine. This mutant is unable to synthesize methionine and therefore requires an external source of this amino acid.
Under aseptic conditions, a substrate devoid of L-methionine was supplemented with graded amounts of glycyl-D,L-methionine, glycyl-L-methionine, and L-methionylglycine and then inoculated with a drop of a washed L. mesenteroides P-60 culture. After 17 hours of incubation at 37°C., the growth of L. mesenteroides P-60 in each of the culture tubes was measured turbidimetrically, at a wavelength of […]. Based on the growth response of this mutant to a similar treatment with a standard L-methionine solution of known concentration, the L-methionine response, if any, to the candidate peptides was evaluated.

[4] = level tested 12 μg./tube, calculated L-methionine equivalence 4.0 μg. (glycyl-D,L-methionine) or 8.0 μg. (L-dipeptides)
[5] = level tested 24 μg./tube, calculated L-methionine equivalence 8.0 μg.
[6] = level tested 6 μg./tube, calculated L-methionine equivalence 4.0 μg.

Structure (SMILES) | odor after storage [1] | difference between responses from methionine and glycylmethionine supplemented rations [2] | feed efficiencies [2] | growth [2] | utilization as a source of L-methionine by L. mesenteroides P-60 [3] | L-Methionine Response [3, 4] [µg] | L-Methionine, % of Theoretical [3, 4] [%] | L-Methionine Response [3, 5] [µg] | L-Methionine, % of Theoretical [3, 5] [%] | L-Methionine Response [3, 6] [µg] | L-Methionine, % of Theoretical [3, 6] [%]
CSCCC(NC(=O)C(C)N)C(=O)O (mixture of isomers) [D,L-alanyl-D,L-methionine] | developed a typical sulfurous odor |  |  |  |  |  |  |  |  |  | 
CSCCC(N)C(=O)O (racemic) [D,L-Methionine, D,L-methionine, reference compound] | developed a typical sulfurous odor | No significant difference | improved feed efficiencies | significant growth increases |  |  |  |  |  |  | 
CSCCC(NC(=O)CN)C(=O)O (racemic) [Glycyl-D,L-Methionine, glycyl-D,L-methionine] | still virtually odor-free | No significant difference | improved feed efficiencies | significant growth increases | can utilize | 3.5 | 88 | 7.5 | 94 |  | 
CSCC[C@H](NC(=O)CN)C(=O)O [Glycyl-L-Methionine, glycyl-L-methionine] |  |  |  |  | can utilize | 7.8 | 97 |  |  | 4.5 | 112
CSCC[C@H](N)C(=O)NCC(=O)O [L-Methionylglycine, L-methionylglycine] (H-Met-Gly-OH) |  |  |  |  | can utilize | 7.5 | 94 |  |  | 4.0 | 100
